Test results: patent US11932645B2, “Substituted pyrazolo[1,5-a]pyrimidines and their use in the treatment of medical disorders” (Bial—R&D Investments, S.A., priority 2014, dated 2024)

Target: T1, glucocerebrosidase (Gcase) (Homo sapiens, UniProt P04062)
T1 sequence (P04062 40-536): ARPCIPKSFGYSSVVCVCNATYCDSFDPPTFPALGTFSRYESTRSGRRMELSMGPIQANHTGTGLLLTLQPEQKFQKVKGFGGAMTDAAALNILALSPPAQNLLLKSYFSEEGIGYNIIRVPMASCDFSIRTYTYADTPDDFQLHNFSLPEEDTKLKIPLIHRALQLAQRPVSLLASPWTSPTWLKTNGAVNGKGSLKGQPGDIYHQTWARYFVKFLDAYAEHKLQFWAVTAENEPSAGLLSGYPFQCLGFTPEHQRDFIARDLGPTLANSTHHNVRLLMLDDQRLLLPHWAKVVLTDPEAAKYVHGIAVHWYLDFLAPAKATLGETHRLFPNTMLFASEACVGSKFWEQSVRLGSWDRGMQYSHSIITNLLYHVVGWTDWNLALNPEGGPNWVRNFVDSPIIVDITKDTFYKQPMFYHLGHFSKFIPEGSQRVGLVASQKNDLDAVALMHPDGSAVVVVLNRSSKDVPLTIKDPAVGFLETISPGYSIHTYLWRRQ
Test: Glucocerebrosidase (Gcase) activation assay, 4-methylumbelliferyl-beta-D-glucopyranoside substrate, with saposin C
Assay type: biochemical
Conditions: 10 nM GCase, 100 nM saposin C, pH 4.7
Experimental: The ability of exemplary compounds to activate glucocerebrosidase (Gcase) was measured.
A 484 μL aliquot of a 1.0 mg/mL solution of phosphatidylserine (PS) (Sigma P7769) in chloroform was evaporated under a stream of nitrogen for 1 hour. The lipid film was dissolved over 4 minutes of vigorous vortexing in 40 mL of 176 mM K2HPO4/50 mM citric acid (pH 4.7) containing 7.5 μL of triton X-100, resulting in a mixed micellar preparation with a composition of 0.32 mM triton and 0.37 mol % PS. 4-Methylumbelliferyl-beta-D-glucopyranoside (ACROS-337025000) was dissolved in the micellar solution to a final concentration of 2 mM for use as the reaction substrate.
Test compounds were diluted to the desired concentrations with dimethylsulfoxide (DMSO) from 10 mM stocks, and 0.41 μL of the DMSO compound mixture was added to 100 μL of micellar solution containing 10 nM GCase and 100 nM saposin C (Enzo ALX-201-262-C050). Pre-incubation was allowed to occur for 30 minutes at room temperature, after which the reaction was initiated by combining 25 μL of substrate solution with 25 μL of compound/GCase/saposin mixture. The reaction proceeded for 15 minutes at room temperature and was stopped by adding 150 μL of 1M glycine, pH 12.5. The endpoint of the reaction was monitored by measuring fluorescence intensity (excitation: 365 nm; emission: 440 nm) on a SpectraMax i3 instrument (Molecular Devices). Test compounds were screened at 1.0 and 0.1 μM final concentration, and subsequent 8-point dose response curves were obtained using 3-fold dilutions from a maximum final concentration of 5 μM.
For experiments in which the test compound was used at a concentration of 1.0 μM, the symbol “+” indicates less than 30% Gcase activation; the symbol “++” indicates Gcase activation in the range of 30% up to 60%; and the symbol “+++” indicates Gcase activation greater than 60%. For experiments in which the test compound was used at a concentration of 0.1 μM, the symbol “*” indicates less than 10% Gcase activation; the symbol “**” indicates Gcase activation in the range of 10% up to 20%; and the symbol “***” indicates greater than 20% Gcase activation.

SMILES | Percent Gcase Activation 0.1 μM Test Compound | Percent Gcase Activation 1 μM Test Compound
C#CCOc1ccc(NC(=O)c2cnn3c(C)cc(C)nc23)cc1 [III-33] | * (less than 10% Gcase activation) | + (less than 30% Gcase activation)
Cc1cc(C)n2ncc(C(=O)Nc3ccc(CCCC(=O)O)cc3)c2n1 [III-34] | * (less than 10% Gcase activation) | + (less than 30% Gcase activation)
Cc1cc(C)n2ncc(C(=O)Nc3ccc(C(C)O)cc3)c2n1 (centres unmarked) [III-35] | * (less than 10% Gcase activation) | + (less than 30% Gcase activation)
Cc1cc(C)n2ncc(C(=O)Nc3ccc(CCC(=O)O)cc3)c2n1 [III-36] | * (less than 10% Gcase activation) | + (less than 30% Gcase activation)
Cc1cc(C)n2ncc(CNc3ccc(-c4cocn4)cc3)c2n1 [III-37] | * (less than 10% Gcase activation) | + (less than 30% Gcase activation)
Cc1cc(C)n2ncc(C(=O)Nc3ccc(N=[N+]=[N-])cc3)c2n1 [III-38] | * (less than 10% Gcase activation) | ++ (Gcase activation in the range of 30% up to 60%)
Cc1cc(C)n2ncc(C(=O)Nc3ccc(-c4cccs4)cc3)c2n1 [III-39] | *** (greater than 20% Gcase activation) | +++ (Gcase activation greater than 60%)
Cc1cc(C)n2ncc(C(=O)Nc3ccc4[nH]c(C)cc4c3)c2n1 [III-40] | * (less than 10% Gcase activation) | + (less than 30% Gcase activation)
Cc1cc(C)n2ncc(C(=O)Nc3ccc4[nH]ncc4c3)c2n1 [III-41] | * (less than 10% Gcase activation) | + (less than 30% Gcase activation)
Cc1cc(C)n2ncc(C(=O)Nc3ccc4cn[nH]c4c3)c2n1 [III-42] | * (less than 10% Gcase activation) | + (less than 30% Gcase activation)
Cc1cc(C)n2ncc(C(=O)Nc3ccc4nc(C)oc4c3)c2n1 [III-44] | * (less than 10% Gcase activation) | + (less than 30% Gcase activation)
Cc1cc(C)n2ncc(C(=O)Nc3ccc4nc(C)[nH]c4c3)c2n1 [III-45] | * (less than 10% Gcase activation) | + (less than 30% Gcase activation)
Cc1cc(C)n2ncc(C(=O)Nc3ccc4c(c3)CCNC4)c2n1 [III-46] | * (less than 10% Gcase activation) | + (less than 30% Gcase activation)
Cc1cc(C)n2ncc(C(=O)Nc3ccc4oncc4c3)c2n1 [III-47] | * (less than 10% Gcase activation) | + (less than 30% Gcase activation)
Cc1cc(C)n2ncc(C(=O)Nc3ccc4[nH]c(-c5ccco5)nc4c3)c2n1 [III-49] | * (less than 10% Gcase activation) | + (less than 30% Gcase activation)
Cc1cc(C)n2ncc(C(=O)Nc3ccc4nc(C)sc4c3)c2n1 [III-50] | * (less than 10% Gcase activation) | ++ (Gcase activation in the range of 30% up to 60%)

SMILES | Percent Gcase Activation 0.1 μM Test Compound | Percent Gcase Activation 1 μM Test Compound
Cc1cc(C)n2ncc(C(=O)Nc3ccc(Cl)c(COc4cccnc4)c3)c2n1 [III-51] | ** (Gcase activation in the range of 10% up to 20%) | +++ (Gcase activation greater than 60%)
Cc1cc(C)n2ncc(C(=O)Nc3ccc(C)c(-c4ncco4)c3)c2n1 [III-52] | ** (Gcase activation in the range of 10% up to 20%) | +++ (Gcase activation greater than 60%)
Cc1cc(C)n2ncc(C(=O)Nc3ccc(Cl)c(-c4cnco4)c3)c2n1 [III-53] | ** (Gcase activation in the range of 10% up to 20%) | +++ (Gcase activation greater than 60%)
Cc1cc(C)n2ncc(C(=O)Nc3ccc(-c4cnn(C)c4)cc3)c2n1 [III-54] | * (less than 10% Gcase activation) | ++ (Gcase activation in the range of 30% up to 60%)
Cc1cc(C)n2ncc(C(=O)Nc3ccc(-c4ccco4)cc3)c2n1 [III-55] | *** (greater than 20% Gcase activation) | +++ (Gcase activation greater than 60%)
Cc1cc(C)n2ncc(C(=O)Nc3ccc(-c4ccncc4)cc3)c2n1 [III-56] | * (less than 10% Gcase activation) | + (less than 30% Gcase activation)
Cc1cc(C)n2ncc(C(=O)NC3CCCc4ccccc43)c2n1 (centres unmarked) [III-58] | *** (greater than 20% Gcase activation) | +++ (Gcase activation greater than 60%)
CCCCCO[C@H]1CC[C@H](NC(=O)c2cnn3c(C)cc(C)nc23)CC1 [III-59] | ** (Gcase activation in the range of 10% up to 20%) | +++ (Gcase activation greater than 60%)
Cc1cc(C)n2ncc(C(=O)N[C@@H](C)c3ccccc3F)c2n1 [III-60] | * (less than 10% Gcase activation) | +++ (Gcase activation greater than 60%)
COc1ccccc1[C@H](C)NC(=O)c1cnn2c(C)cc(C)nc12 [III-61] | ** (Gcase activation in the range of 10% up to 20%) | +++ (Gcase activation greater than 60%)
COc1ccccc1[C@@H](C)NC(=O)c1cnn2c(C)cc(C)nc12 [III-62] | * (less than 10% Gcase activation) | +++ (Gcase activation greater than 60%)
Cc1cc(C)n2ncc(C(=O)N[C@@H](C)c3cccc(Cl)c3)c2n1 [III-63] | ** (Gcase activation in the range of 10% up to 20%) | +++ (Gcase activation greater than 60%)
Cc1cc(C)n2ncc(C(=O)N[C@H](C)c3ccc(Cl)cc3)c2n1 [III-64] | ** (Gcase activation in the range of 10% up to 20%) | +++ (Gcase activation greater than 60%)
Cc1cc(C)n2ncc(C(=O)N[C@H](C)c3ccc(F)cc3)c2n1 [III-65] | * (less than 10% Gcase activation) | ++ (Gcase activation in the range of 30% up to 60%)
Cc1cc(C)n2ncc(C(=O)NC(C)C3CCC(F)(F)CC3)c2n1 (centres unmarked) [III-66] | * (less than 10% Gcase activation) | + (less than 30% Gcase activation)
